The compounds below were run against T1, DPP-IV enzyme (Rattus norvegicus, UniProt P14740) (assay: DPP-IV dipeptide (Ala-Pro-AFC) cleavage inhibition, fluorescent assay). Conditions: Table S6; Ala-Pro-AFC at 10 µM, one-hour incubation, triplicate; read-out: measured IC50's.
T1 construct: made in house
Assay type: biochemical
Description: DPP-IV catalytic activity and inhibition of dipeptide cleavage was measured using a fluorescent assay performed at room temperature in 384-well, black polypropylene microplates. […] Assay data shown in Fig. 3 were performed with a one-hour incubation time. The data were fit to the four-parameter model using a Levenburg–Marquardt nonlinear regression algorithm. Figure 3b,c were generated using GraphPad Prism v6.
Rat DPP-IV enzyme and Fab mutant proteins were expressed and purified as previously described. […] For x-ray diffraction data collection, crystals were transferred into well solution with 30% (w/v) ethylene glycol and then flash frozen in liquid nitrogen.

T1 sequence (P14740 whole entry): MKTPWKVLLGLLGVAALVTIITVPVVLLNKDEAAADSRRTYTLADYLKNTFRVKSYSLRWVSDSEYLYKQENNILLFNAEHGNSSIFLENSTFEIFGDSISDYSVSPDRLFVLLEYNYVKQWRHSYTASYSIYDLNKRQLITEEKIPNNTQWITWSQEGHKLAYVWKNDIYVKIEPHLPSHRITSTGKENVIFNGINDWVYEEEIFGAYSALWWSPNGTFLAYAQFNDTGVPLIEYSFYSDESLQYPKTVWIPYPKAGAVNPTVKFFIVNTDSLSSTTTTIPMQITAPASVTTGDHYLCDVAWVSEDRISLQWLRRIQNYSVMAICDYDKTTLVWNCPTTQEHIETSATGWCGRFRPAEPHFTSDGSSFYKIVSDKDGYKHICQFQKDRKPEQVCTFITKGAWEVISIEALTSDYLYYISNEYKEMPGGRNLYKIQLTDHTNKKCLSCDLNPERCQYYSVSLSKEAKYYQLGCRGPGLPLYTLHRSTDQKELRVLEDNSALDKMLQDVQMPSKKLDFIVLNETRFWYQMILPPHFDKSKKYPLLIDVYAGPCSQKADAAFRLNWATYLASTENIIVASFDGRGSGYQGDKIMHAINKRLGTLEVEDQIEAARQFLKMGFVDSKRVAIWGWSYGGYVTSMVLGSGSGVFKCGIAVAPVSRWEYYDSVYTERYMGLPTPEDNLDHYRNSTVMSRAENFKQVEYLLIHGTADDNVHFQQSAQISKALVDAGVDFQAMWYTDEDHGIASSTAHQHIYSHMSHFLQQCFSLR

Row | IC50 | Structure (SMILES)
1 | 141 nM | CC(=O)NCCOCCOCCOCCNC(=O)CN1CCN(C(=O)C[C@H](N)Cc2cc(F)c(F)cc2F)CC1 [compound 6 (n = 3)]
2 | 100 nM | CC(=O)NCCOCCOCCOCCOCCNC(=O)CN1CCN(C(=O)C[C@H](N)Cc2cc(F)c(F)cc2F)CC1 [compound 6 (n = 4)]
3 | 146 nM | CC(=O)NCCOCCOCCOCCOCCOCCNC(=O)CN1CCN(C(=O)C[C@H](N)Cc2cc(F)c(F)cc2F)CC1 [compound 6 (n = 5)]
4 | 119 nM | CC(=O)NCCOCCOCCOCCOCCOCCOCCNC(=O)CN1CCN(C(=O)C[C@H](N)Cc2cc(F)c(F)cc2F)CC1 [compound 6 (n = 6)]
5 | 134 nM | CC(=O)NCCOCCOCCOCCOCCOCCOCCOCCNC(=O)CN1CCN(C(=O)C[C@H](N)Cc2cc(F)c(F)cc2F)CC1 [compound 6 (n = 7)]
6 | 124 nM | CC(=O)NCCOCCOCCOCCOCCOCCOCCOCCOCCNC(=O)CN1CCN(C(=O)C[C@H](N)Cc2cc(F)c(F)cc2F)CC1 [compound 6 (n = 8)]
7 | 152 nM | CC(=O)NCCOCCOCCOCCOCCOCCOCCOCCOCCOCCOCCNC(=O)CN1CCN(C(=O)C[C@H](N)Cc2cc(F)c(F)cc2F)CC1 [compound 6 (n = 10)]
8 | 160 nM | CC(=O)NCCOCCOCCOCCOCCOCCOCCOCCOCCOCCOCCOCCNC(=O)CN1CCN(C(=O)C[C@H](N)Cc2cc(F)c(F)cc2F)CC1 [compound 6 (n = 11)]

Same assay, conditions: dipeptide substrate cleavage; read-out: DPP-IV IC50

Row | IC50 | Structure (SMILES)
9 | 130 nM | CNC(=O)CN1CCN(C(=O)C[C@H](N)Cc2cc(F)c(F)cc2F)CC1.Cl [compound 2, (R)-2-(4-(3-amino-4-(2,4,5-trifluorophenyl)butanoyl)piperazin-1-yl)-N-methylacetamide hydrochloride]
10 | 105 nM | COCCOCCOCCOCCNC(=O)CN1CCN(C(=O)C[C@H](N)Cc2cc(F)c(F)cc2F)CC1 [compound 4 (n = 3)]
11 | 70 nM | COCCOCCOCCOCCOCCOCCOCCOCCNC(=O)CN1CCN(C(=O)C[C@H](N)Cc2cc(F)c(F)cc2F)CC1 [compound 4 (n = 7)]

Same assay, conditions: same experimental conditions

Row | potency loss as compared with sitagliptin | Structure (SMILES)
12 | seven-fold | CNC(=O)CN1CCN(C(=O)C[C@H](N)Cc2cc(F)c(F)cc2F)CC1.Cl [compound 2, (R)-2-(4-(3-amino-4-(2,4,5-trifluorophenyl)butanoyl)piperazin-1-yl)-N-methylacetamide hydrochloride]

From article PMC5954141, “Structure-guided Discovery of Dual-recognition Chemibodies” (Scientific Reports, 2018)
